Common to all, as to experiment: NCI tumour cell line growth inhibition, 48 h
The test system of test [1] is A549 NSCLC.
Test [2] relates to HCT-15 colon.
Test [3] deals with MALME-3M melanoma.
The subject of test [4] is NCI-H23 lung.
Test [5] deals with OVCAR-4 ovarian.
In test [6] the test system is OVCAR-8 ovarian.
In test [7] the test system is SF-295 CNS.
The subject of test [8] is SF-539 CNS.
Test [9] relates to U251 CNS.
Test [10] concerns HL-60(TB) leukemia.

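Assay format: 96-well plates, 48-hour exposure. GI50 is the concentration that inhibits growth by half. TGI: concentration producing complete growth inhibition.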 Where a SMILES comes first, the peptide text is derived from it. Bridges are numbered along the chain shown (N, C = ends). [ ]: non-standard residue; d: D form. aThr = C[C@H](O)[C@H](N)C(=O)O

Regarding `[O]=[V]([OH])([OH])[OH]`, the GI50 in test [1] was more than 100 µM; in test [2] it was more than 100 µM; in [3] it was more than 100 µM; in test [4], more than 100 µM; in test [5], 54.2 µM; in test [6] it was more than 100 µM. The GI50 in test [7], in [8] and in [9] was more than 100 µM throughout. For the same molecule, the TGI in test [1], in test [2], in test [3], in test [4], in test [5] and in test [6] was more than 100 µM each time. The TGI in test [7], in [8] and in test [9] was more than 100 µM throughout.

On to `CNCc1ccc(-c2cc(-c3nc(-c4ccc(S(=O)(=O)C(C)C)cc4)cnc3N)on2)cc1`, for which the GI50 is 0.519 µM in [2]; 1.35 µM in test [10]; 0.676 µM in [4]; 5.05 µM in test [5]; 2.31 µM in test [6]; 4.5 µM in test [7]. Moreover, the GI50 in test [8] is 0.502 µM; in [9] it was 4.93 µM. Also, the TGI in test [2] was 2.3 µM; in [10], 10.6 µM; in test [4] it was 28.3 µM; in test [5], 22.8 µM; in [6] it was 5.94 µM; in test [7], 22.9 µM. Further, the TGI in test [8] was 1.88 µM; in test [9], 21.5 µM.

As to `O=C(c1ccccc1)[C@H]1Nc2ccc(Cl)cc2[C@H]2CCC[C@@H]12`, the TGI in [1] is more than 100 µM; in test [2] it was 98.3 µM; in [3] it was 51.3 µM; in test [4] it was 78 µM; in test [5], 75.9 µM; in test [6] it was more than 100 µM. Besides, the TGI in [7], in test [8] and in [9] was more than 100 µM each time.

For `COc1ccc2nc(NC(=O)C(=O)CC(=O)c3ccc([N+](=O)[O-])cc3)sc2c1`, the TGI in [1], in test [3], in [4], in [5], in test [6] and in test [8] was more than 100 µM each time. Moreover, the TGI in [9] is more than 100 µM.

As for `Cc1ccc(S(=O)(=O)NCCCCC(N)C(=O)O)cc1` (configuration not stated), the TGI in test [1], in test [2], in test [3], in test [4], in test [5] and in test [6] was more than 100 µM each time. Further, the TGI in test [7], in test [8] and in test [9] was more than 100 µM throughout.

For `C[C@H](C(=O)O)C(=O)NC(=O)N(Cc1ccccc1)N=O`, the TGI in test [1], in test [2], in test [3], in test [5], in test [6] and in [7] was more than 100 µM each time. Also, the TGI in [8] and in [9] was more than 100 µM each time.

Regarding `Cc1cccc(Cn2cc(CO)c3cnccc32)c1`, the GI50 is more than 100 µM in test [1]; more than 100 µM in [2]; 64.6 µM in [3]; 19.2 µM in test [4]; 78.3 µM in test [5]; 53.7 µM in [6]. Further, the GI50 in test [7] was 12.4 µM; in [8], more than 100 µM; in test [9], 62.5 µM. The TGI in test [1], in test [2], in test [3], in test [4], in test [5] and in test [6] was more than 100 µM in each case. In addition, the TGI in [7] is 76.7 µM; in test [8], more than 100 µM; in test [9] it was more than 100 µM.

As for `COc1ccc(/C=C2\C(=O)N(NC(C)=O)c3ccccc32)cc1`, the TGI in test [1], in test [2], in test [3], in test [4], in [5] and in test [6] was more than 100 µM throughout. Further, the TGI in [7], in test [8] and in test [9] was more than 100 µM throughout.

In the case of `NC1=NC(Cn2nc(-c3ccccc3)c3ccccc3c2=O)=NNC(=O)N1`, the TGI in [1], in [2], in test [3], in [4], in test [5] and in [6] was more than 100 µM throughout. In addition, the TGI in test [7], in [8] and in test [9] was more than 100 µM throughout.

Take `CC(C)C[C@@H]1NC(=O)[C@@H]2CCCN2C(=O)[C@@H]2CCCN2C(=O)[C@H](CC(C)C)NC(=O)[C@H](CO)NC(=O)[C@H](CCCCN)NC(=O)[C@H]([C@H](C)O)NC(=O)[C@@H]2CSSC[C@@H](NC1=O)C(=O)N[C@@H](Cc1ccccc1)C(=O)N1CCC[C@H]1C(=O)N[C@@H](CC(=O)O)C(=O)NCC(=O)N[C@@H](CCCN=C(N)N)C(=O)N2` (cyclo(C[aThr]KSLPPL[dC]FPDGR); disulfide 1-9): the GI50 in test [1], in test [2], in test [3], in test [4], in test [5] and in test [6] was more than 50 µM each time. In addition, the GI50 in [7], in [8] and in test [9] was more than 50 µM in each case. Besides, the TGI in [1], in test [2], in test [3], in test [4], in [5] and in test [6] was more than 50 µM each time. Also, the TGI in [7], in test [8] and in [9] was more than 50 µM throughout.

As for `N#CC(C#N)=C/C=C(\Sc1ccc(Cl)cc1)c1ccc(F)cc1`, the GI50 is 8.61 µM in [1]; 1.49 µM in test [2]; 1.6 µM in test [3]; 0.528 µM in test [4]; 19.5 µM in test [5]; 5.89 µM in test [6]. The GI50 in test [7] was 2.74 µM; in [8], 0.251 µM; in [9], 1.23 µM. Besides, the TGI in test [1] is 32.3 µM; in [2], more than 33.1 µM; in test [3], 6.28 µM; in test [4] it was 2.05 µM; in test [5], 60.3 µM; in [6], 12.7 µM. Moreover, the TGI in test [7] is 9.94 µM; in test [8] it was 0.872 µM; in test [9] it was more than 34.5 µM.

Take `CCSCC1CC(O)(c2ccccc2)C(c2ccccc2)C(c2ccc(F)cc2)O1` (configuration not stated): the GI50 was 2.15 µM in test [1]; 1.76 µM in [2]; 1.7 µM in [10]; 2.01 µM in test [4]; 2.41 µM in test [5]; 2.64 µM in test [6]. For the same molecule, the GI50 in test [8] was 1.6 µM; in test [9], 1.75 µM. Also, the TGI in [1] stood at 6.35 µM; in [2] it was 3.99 µM; in test [10] it was 6.33 µM; in test [4] it was 4.87 µM; in [5], 8.04 µM; in [6] it was 8.54 µM. The TGI worked out at 3.07 µM in test [8] and 3.91 µM in test [9].

Turning to `OC(c1ccccc1Br)(c1ccccc1Br)C(F)(F)F`, the TGI in [1] is more than 100 µM; in [2] it was more than 100 µM; in test [3], 52.3 µM; in test [4], 78.3 µM; in [5] it was more than 100 µM; in [6] it was more than 100 µM. Also, the TGI in test [7] was 38.9 µM; in [8] it was more than 100 µM; in test [9], 34.3 µM.

Regarding `CC(=O)OC1COC(N2CCc3cc([N+](=O)[O-])ccc32)C(OC(C)=O)C1OC(C)=O` (configuration not stated), the TGI in test [1], in test [2], in [4], in [5], in test [6] and in [7] was more than 100 µM in each case. Besides, the TGI in test [8] and in test [9] was more than 100 µM each time.

On to `Cc1nc2ccccc2c(=O)n1/N=C(\N=Nc1ccccc1Cl)c1ccccc1Cl`, for which the TGI in test [1], in test [2], in test [10], in test [4], in test [6] and in [8] was more than 100 µM each time. In addition, the TGI in test [9] was more than 100 µM.

On to `OCC1CC[N-]CC1.OCC1CC[N-]CC1.[Cl][Pt+2]([Cl])([Cl])[Cl]`, for which the GI50 in test [1] was 52.7 µM; in [2], 27.8 µM; in test [3] it was 36.4 µM; in test [4] it was 28.6 µM; in test [5], 42.5 µM; in [6], 31.1 µM. Also, the GI50 was 41.9 µM in [8] and 19.6 µM in test [9]. The same molecule displayed a TGI in test [9] of 53 µM.

Regarding `c1ccc(C(c2ccccc2)c2ccccn2)cc1`, the TGI in test [1], in [2], in test [3], in [4], in [5] and in [6] was more than 100 µM in each case. Also, the TGI in [7], in [8] and in [9] was more than 100 µM each time.
